The results in this text go back to US20210139517A1, “BICYCLIC HETEROARYL COMPOUNDS AND USES THEREOF” (Revolution Medicines, Inc., priority 2019, published 2021).

One assay concerns SOS1 function in cells: cellular pERK in PC-9 cells (EGFR Ex19Del). The experiment in a line: pERK potency assay in PC-9 cells (AlphaLISA SureFire Ultra p-ERK1/2). The note with it: 1 hour incubation. It counts as cell-based. The method, then:
The purpose of this assay is tomeasure the ability of test compounds to inhibit SOS1 function in cells. SOS1 activates RAS proteins by catalyzing the conversion of RAS-GDP to RAS-GTP in response to receptor tyrosine kinase activation. […] The procedure described below measures the level of cellular pERK in response to test compounds in PC-9 cells (EGFR Ex19Del).
PC-9 cells were grown and maintained using media and procedures recommended by the ATCC. On the day prior to compound addition, cells were plated in 384-well cell culture plates (40 μL/well) and grown overnight in a 37° C., 5% CO2 incubator. Test compounds were prepared in 10, 3-fold dilutions in DMSO, with a top concentration of 10 mM. On the day of the assay, 40 nL of test compound was added to each well of cell culture plate using an Echo550 liquid handler (LabCyte). Concentrations of test compound were tested in duplicate with highest test concentration being 10 μM. After compound addition, cells were incubated for 1 hour at 37° C., 5% CO2. Following incubation, culture medium was removed and cells were washed once with phosphate buffered saline.
Cellular pERK level was determined using the AlphaLISA SureFire Ultra p-ERK1/2 Assay Kit (PerkinElmer). Cells were lysed in 25 μL lysis buffer, with shaking at 600 RPM at room temperature for 15 minutes. Lysate (10 μL) was transferred to a 384-well Opti-plate (PerkinElmer) and 5 μL acceptor mix was added. The plate was centrifuged at 1000 RPM for 1 minute, and incubated in the dark for 2 hours. Following this incubation, 5 μL of donor mix was added, the plate was sealed and centrifuged at 1000 RPM for 1 minute, and the mixture was incubated for 2 hours at room temperature. Signal was read on an Envision plate reader (PerkinElmer) using standard AlphaLISA settings. Analysis of raw data was carried out in Excel (Microsoft) and Prism (GraphPad). Signal was plotted vs. the decadal logarithm of compound concentration, and IC50 was determined by fitting a 4-parameter sigmoidal concentration response model.
`C[C@@H](Nc1ncnc2c1cc(C1CCN(CCF)CC1)c(=O)n2C)c1cccc(C(F)F)c1F` [Example 8-4] yielded an IC50 of 229 nM. The same measure, in the same setting: as for `CC(=O)N1CCC(c2cc3c(N[C@H](C)c4cccc(C(F)F)c4F)ncnc3n(C)c2=O)CC1` [Example 8-3], the figure is 145 nM; as for `COC1(c2cc3c(N[C@H](C)c4cccc(C(F)F)c4F)ncnc3n(C)c2=O)CC2(COC2)C1` [Example 32-80], 154 nM; as for `Cc1c([C@@H](C)Nc2ncnc3c2cc(C2CCS(=O)(=O)CC2)c(=O)n3C)cccc1C(F)(F)F` [Example 8-11], 45.1 nM.

Take `C[C@@H](Nc1ncnc2c1cc(C1CCN(CC(F)(F)F)CC1)c(=O)n2C)c1cccc(C(F)F)c1F` [Example 8-16]: the IC50 was determined as 917 nM. This IC50 lies about 20-fold higher than the previous one.

The compound `Cc1nc(N[C@H](C)c2cccc(C(F)F)c2F)c2cc(C3(O)CCN(C)CC3)c(=O)n(C)c2n1` [Example 28-2] registered an IC50 of 572 nM. This IC50 lies about 1.6-fold lower than the previous one. `COC1(c2cc3c(N[C@H](C)c4cccc(C(F)F)c4F)ncnc3n(C)c2=O)CCS(=O)(=O)C(C)C1` (stereo partly shown) [Example 32-67]: the IC50 was determined as 128 nM. `C[C@@H](Nc1ncnc2c1cc(C1=CCS(=O)(=O)CC1)c(=O)n2CC#N)c1cccc(C(F)F)c1F` [Example 11-3] showed an IC50 of 80.7 nM. Consider `COC1(c2cc3c(N[C@H](C)c4cccc(C(F)F)c4F)ncnc3n(C)c2=O)CCN(C)CC1` [Example 32-3], for which the IC50 amounted to 2240 nM. For `COc1ccc(Cc2cc3c(N[C@H](C)c4cccc(C(F)F)c4F)nc(C)nc3n(C)c2=O)cc1OC` [Example 20-1], half-maximal inhibition (IC50) was put at 6600 nM.

In the case of `CCc1c(C(F)F)cccc1[C@@H](C)Nc1ncnc2c1cc(C1CCN(C(C)=O)CC1)c(=O)n2C` [Example 8-7], the IC50 is 351 nM. `C[C@@H](Nc1ncnc2c1cc(C1CCS(=O)(=O)CC1)c(=O)n2C)c1cccc(C(F)F)c1F` [Example 8-5] registered an IC50 of 33.5 nM. Turning to `C[C@@H](Nc1ncnc2c1cc(Cc1ccccc1)c(=O)n2C)c1cccc(C(F)F)c1F` [Example 20-2], half-maximal inhibition (IC50) was put at 2550 nM. Compared with the last compound, the IC50 is about 76-fold higher. In turn, `Cc1nc(N[C@H](C)c2cccc(C(F)F)c2F)c2cc(-c3cncnc3)c(=O)n(C)c2n1` [Example 21-4] returned an IC50 of 365 nM. As for `COC1(c2cc3c(N[C@H](C)c4cccc(C(F)F)c4F)ncnc3n(C)c2=O)CC2CS(=O)(=O)CC2C1` (stereo partly shown) [Example 32-85], the IC50 was 53.7 nM. Same read-out and setting: as for `CC(=O)N1CCC(c2cc3c(N[C@H](C)c4cccc5c4CCC5(F)F)ncnc3n(C)c2=O)CC1` [Example 8-6], the figure is 34.4 nM; as for `C[C@@H](Nc1ncnc2c1cc(C1CCN(C3COC3)CC1)c(=O)n2C)c1cccc(C(F)F)c1F` [Example 8-8], 389 nM; as for `C[C@@H](Nc1ncnc2c1cc(-c1cnc(F)nc1)c(=O)n2C)c1cccc(C(F)F)c1F` [Example 21-5], 1200 nM. Consider `COC1(c2cc3c(N[C@H](C)c4cccc(C(F)F)c4F)ncnc3n(C)c2=O)CCC2(CC1)COC2` [Example 32-72], for which half-maximal inhibition (IC50) required 127 nM. Regarding `Cc1nc(N[C@H](C)c2cccc(C(F)F)c2F)c2cc(C3CCN(CC(F)(F)F)CC3)c(=O)n(C)c2n1` [Example 8-17], the IC50 is 542 nM. `Cc1nc(N[C@H](C)c2cccc(C(F)F)c2F)c2cc(-c3ccnnc3)c(=O)n(C)c2n1` [Example 21-3] showed an IC50 of 188 nM. Against the preceding compound, the IC50 is about 2.9-fold lower. For `COC1(c2cc3c(N[C@H](C)c4cccc(C(F)F)c4F)ncnc3n(C)c2=O)CCS(=O)(=O)C1` (stereo partly shown) [Example 32-74], the midpoint of inhibition, the IC50, lay at 201 nM. `COC1(c2cc3c(N[C@H](C)c4cccc5c4OCC5(F)F)ncnc3n(C)c2=O)CCN(C(C)=O)CC1` [Example 32-76] yielded an IC50 of 17.5 nM. This IC50 lies about 11-fold lower than the previous one. The compound `Cc1nc(N[C@H](C)c2cccc(C(F)F)c2F)c2cc(C3CCS(=O)(=O)CC3)c(=O)n(C)c2n1` [Example 8-12] gave an IC50 of 138 nM. Against the preceding compound, the IC50 is about 7.9-fold higher. In turn, `COC1(c2cc3c(N[C@H](C)c4cccc(C(F)F)c4F)ncnc3n(C)c2=O)CCN(C(C)=O)[C@H]1C` (stereo partly shown) [Example 32-100] displayed an IC50 of 200 nM.

Consider `CO[C@]1(c2cc3c(N[C@H](C)c4cccc(C(F)F)c4C)ncnc3n(C)c2=O)CCN(C(C)=O)C1` [Example 32-98], for which the IC50 is 231 nM. In turn, `CC(=O)N1CCC(c2cc3c(N[C@H](C)c4cccc(C(F)F)c4F)nc(C)nc3n(C)c2=O)CC1` [Example 8-9] showed an IC50 of 86.8 nM. Against the preceding compound, the IC50 is about 2.7-fold lower. As to `COC1(c2cc3c(N[C@H](C)c4cccc(C(F)F)c4F)ncnc3n(C)c2=O)CCS(=O)(=O)C1` (stereo partly shown) [Example 32-73], it took 57.1 nM to reach half-maximal inhibition (IC50). Consider `COC1(c2cc3c(N[C@H](C)c4cccc(C(F)F)c4C)ncnc3n(C)c2=O)CCN(C(C)=O)CC1` [Example 32-87], for which the IC50 was 13.4 nM. With `C[C@@H](Nc1ncnc2c1cc(C1(C#N)CCN(C)CC1)c(=O)n2C)c1cccc(C(F)F)c1F` [Example 36-2], the IC50 is 63 nM.

In turn, `COC1(c2cc3c(N[C@H](C)c4cccc(C(F)F)c4C)ncnc3n(C)c2=O)CCS(=O)(=O)CC1` [Example 32-86] gave an IC50 of 82.5 nM.

`C[C@@H](Nc1ncnc2c1cc(Cc1ccccc1)c(=O)n2C)c1cccc(C(F)(F)F)c1` [Example 20-3] displayed an IC50 of 2640 nM. `COC1(c2cc3c(N[C@H](C)c4cccc(C(F)F)c4F)ncnc3n(C3CC3)c2=O)CCN(C(C)=O)CC1` [Example 11-4] yielded an IC50 of 32.2 nM. As for `CC(=O)N1CCC(OC2CC2)(c2cc3c(N[C@H](C)c4cccc(C(F)F)c4F)ncnc3n(C)c2=O)C1` (stereo partly shown) [Example 32-70], half-maximal inhibition (IC50) was put at 350 nM.

Turning to `CO[C@@]1(c2cc3c(N[C@H](C)c4cccc(C(F)F)c4F)nc(C)nc3n(C)c2=O)CCN(C(C)=O)C1` [Example 32-69], the IC50 turned out to be 77.8 nM. In turn, `COC1(c2cc3c(N[C@H](C)c4cccc(C(F)F)c4F)ncnc3n(C)c2=O)CCC2(CC1)CS(=O)(=NC1CC1)C2` (stereo partly shown) [Example 32-83] gave a 50% inhibitory concentration (IC50) of 321 nM. Same read-out and setting: the result for `CO[C@@]1(c2cc3c(N[C@H](C)c4cccc(C(F)F)c4C)ncnc3n(C)c2=O)CCN(C(C)=O)C1` [Example 32-99] reads 16.9 nM. On the same count and under the same terms, the result for `Cc1nc(N[C@H](C)c2cccc(C(F)F)c2F)c2cc(C3=CCCOC3)c(=O)n(CCO)c2n1` [Example 11-1] reads 345 nM; that for `C[C@@H](Nc1ncnc2c1cc(-c1ccc3nonc3c1)c(=O)n2C)c1cccc(C(F)F)c1F` [Example 21-8], 334 nM.

`CC(=O)N1CCC(OC2CC2)(c2cc3c(N[C@H](C)c4cccc(C(F)F)c4F)ncnc3n(C)c2=O)C1` (stereo partly shown) [Example 32-71]: the IC50 was 41.8 nM. This IC50 lies about 8-fold lower than the previous one.

Take `COC1(c2cc3c(N[C@H](C)c4cccc5c4OCC5(F)F)ncnc3n(C)c2=O)CCS(=O)(=O)CC1` [Example 32-77]: 47.7 nM corresponded to half-maximal inhibition (IC50). Take `COC1(c2cc3c(N[C@H](C)c4cccc(C(F)F)c4F)ncnc3n(C)c2=O)CN(C(C)=O)CC12CC2` (stereo partly shown) [Example 32-95]: the IC50 worked out at 798 nM. Take `C[C@@H](Nc1ncnc2c1cc(C1(N)CCC3(CC1)CS(=O)(=O)C3)c(=O)n2C)c1cccc(C(F)F)c1F` [Example 31-5]: half-maximal inhibition (IC50) required 26.7 nM. `C[C@@H](Nc1ncnc2c1cc(C1(O)CCN(C)CC1)c(=O)n2C)c1cccc(C(F)F)c1F` [Example 28-1] gave an IC50 of 187 nM. This IC50 lies about 7-fold higher than the previous one. On to `COC1(c2cc3c(N[C@@H](C)c4cccc(C(F)F)c4F)ncnc3n(C)c2=O)CCN(C(C)=O)CC1` [Example 32-88], for which the midpoint of inhibition, the IC50, lay at 8.1 nM. This IC50 lies about 23-fold lower than the previous one. Same read-out and setting: as for `C[C@@H](Nc1ncnc2c1cc(-c1cncnc1)c(=O)n2C)c1cccc(C(F)F)c1F` [Example 21-2], the figure is 247 nM. Compound `Cc1nc(N[C@H](C)c2cccc(C(F)F)c2F)c2cc(C3CCN(C4COC4)CC3)c(=O)n(C)c2n1` [Example 8-14] showed an IC50 of 420 nM. As to `COC1(c2cc3c(N[C@H](C)c4cccc(C(F)F)c4F)ncnc3n(C)c2=O)CCN(C(C)=O)[C@@H]1C` (stereo partly shown) [Example 32-101], inhibition was half-maximal at 348 nM (IC50).

With `C[C@@H](Nc1ncnc2c1cc(C1CCN(S(C)(=O)=O)CC1)c(=O)n2C)c1cccc(C(F)F)c1F` [Example 8-15], the IC50 is 394 nM.

Staying with this assay, now noted: Homo sapiens, PC-9, 1 h, 1 hour incubation.
In turn, `CC(=O)N1CCC(c2cc3c(N[C@H](C)c4cc(N)cc(C(F)(F)F)n4)ncnc3n(C)c2=O)CC1` [Example 17, 6-(1-acetyl-4-piperidyl)-4-[[(1R)-1-[4-amino-6-(trifluoromethyl)-2-pyridyl]ethyl]amino]-8-methyl-pyrido[2,3-d]pyrimidin-7-one] showed an IC50 of 377 nM. In other words, the sub-micromolar range. As for `CC(=O)N1CC2CC2(c2cc3c(N[C@H](C)c4cccc(C(F)F)c4F)ncnc3n(C)c2=O)C1` (stereo partly drawn) [Example 54, 6-{3-acetyl-3-azabicyclo[3.1.0]hexan-1-yl}-4-{[(1R)-1-[3-(difluoromethyl)-2-fluorophenyl]ethyl]amino}-8-methyl-7H,8H-pyrido[2,3-d]pyrimidin-7-one], the IC50 is 46.3 nM. On the same count and under the same terms, the result for `Cc1nc(N[C@H](C)c2cccc(C(F)F)c2F)c2cc(C3COC3)c(=O)n(C)c2n1` [Example 16, 4-[[(1R)-1-[3-(difluoromethyl)-2-fluoro-phenyl]ethyl]amino]-2,8-dimethyl-6-(oxetan-3-yl)pyrido[2,3-d]pyrimidin-7-one] reads 346 nM.
